Laboratory results taken from ChEMBL document CHEMBL5143740, “Discovery of Novel Phosphoinositide-3-Kinase α Inhibitors with High Selectivity, Excellent Bioavailability, and Long-Acting Efficacy for Gastric Cancer” (J Med Chem, 2022).
Activity calls are given as the source filed them. The rule behind the calls is not given here.

How the values were obtained:
[1] = target: Phosphatidylinositol 4,5-bisphosphate 3-kinase catalytic subunit beta isoform (Homo sapiens, UniProt P42338); assay: Inhibition of PI3Kbeta (unknown origin) in presence of [33P]-ATP incubated for 2 hrs by hotspot kinase assay
Homo sapiens [2] = species: Homo sapiens; assay: Selectivity index, ratio of IC50 for inhibition of PI3Kbeta (unknown origin) to IC50 for inhibition of PI3Kalpha (unknown origin)
Homo sapiens [3] = species: Homo sapiens; assay: Selectivity index, ratio of IC50 for inhibition of PI3Kdelta (unknown origin) to IC50 for inhibition of PI3Kalpha (unknown origin)
Homo sapiens [4] = species: Homo sapiens; assay: Selectivity index, ratio of IC50 for inhibition of PI3Kgamma (unknown origin) to IC50 for inhibition of PI3Kalpha (unknown origin)
MGC-803 [5] = assay: Antiproliferative activity against human MGC-803 cells assessed as inhibition of cell growth incubated for 72 hrs by CCK8 assay; assay type: functional, cell-based; conditions: MGC-803, 72 h
PC-3 = assay: Antiproliferative activity against human PC-3 cells assessed as inhibition of cell growth incubated for 72 hrs by CCK8 assay; assay type: functional, cell-based; conditions: PC-3, 72 h
HepG2 = assay: Antiproliferative activity against human HepG2 cells assessed as inhibition of cell growth incubated for 72 hrs by CCK8 assay; assay type: functional, cell-based; conditions: HepG2, 72 h
RPMI-8226 = assay: Antiproliferative activity against human RPMI-8226 cells assessed as inhibition of cell growth incubated for 72 hrs by CCK8 assay; assay type: functional, cell-based; conditions: RPMI-8226, 72 h
K562 = assay: Antiproliferative activity against human K562 cells assessed as inhibition of cell growth incubated for 72 hrs by CCK8 assay; assay type: functional, cell-based; conditions: K562, 72 h
U-251 = assay: Antiproliferative activity against human U-251 cells assessed as inhibition of cell growth incubated for 72 hrs by CCK8 assay; assay type: functional, cell-based; conditions: U-251, 72 h
MGC-803 [6] = assay: Induction of apoptosis in human MGC-803 cells assessed as viable cells at 2 uM incubated for 36 hrs by annexin V-FITC based flow cytometry analysis (reference value: 94.51 %); assay type: functional; conditions: read-out: Activity
MGC-803 [7] = assay: Induction of apoptosis in human MGC-803 cells assessed as late apoptotic cells at 2 uM incubated for 36 hrs by annexin V-FITC based flow cytometry analysis (reference value: 2.61 %); assay type: functional
MGC-803 [8] = assay: Induction of apoptosis in human MGC-803 cells assessed as necrotic cells at 2 uM incubated for 36 hrs by annexin V-FITC based flow cytometry analysis (reference value: […]); assay type: functional
MGC-803 [9] = assay: Induction of apoptosis in human MGC-803 cells assessed as viable cells at 4 uM incubated for 36 hrs by annexin V-FITC based flow cytometry analysis (reference value: 94.51 %); assay type: functional; conditions: read-out: Activity
MGC-803 [10] = assay: Induction of apoptosis in human MGC-803 cells assessed as early apoptotic cells at 4 uM incubated for 36 hrs by annexin V-FITC based flow cytometry analysis (reference value: 2.49 %); assay type: functional
MGC-803 [11] = assay: Induction of apoptosis in human MGC-803 cells assessed as necrotic cells at 4 uM incubated for 36 hrs by annexin V-FITC based flow cytometry analysis (reference value: […]); assay type: functional
MGC-803 [12] = assay: Induction of apoptosis in human MGC-803 cells assessed as viable cells at 8 uM incubated for 36 hrs by annexin V-FITC based flow cytometry analysis (reference value: 94.51 %); assay type: functional; conditions: read-out: Activity
MGC-803 [13] = assay: Induction of apoptosis in human MGC-803 cells assessed as early apoptotic cells at 8 uM incubated for 36 hrs by annexin V-FITC based flow cytometry analysis (reference value: 2.49 %); assay type: functional
MGC-803 [14] = assay: Induction of apoptosis in human MGC-803 cells assessed as late apoptotic cells at 8 uM incubated for 36 hrs by annexin V-FITC based flow cytometry analysis (reference value: 2.61 %); assay type: functional
MGC-803 [15] = assay: Induction of apoptosis in human MGC-803 cells assessed as necrotic cells at 8 uM incubated for 36 hrs by annexin V-FITC based flow cytometry analysis (reference value: […]); assay type: functional
MGC-803 [16] = assay: Inhibition of cell invasion in human MGC-803 cells at 2 to 8 uM incubated for 24 hrs by microscopic analysis; assay type: functional, cell-based; conditions: dose 2-8 µM
MGC-803 [17] = assay: Antimetastatic activity against human MGC-803 cells assessed as […] of E-cadherin expression in at 2 to 8 uM by Western blot analysis; assay type: functional, cell-based; conditions: dose 2-8 µM
MGC-803 [18] = assay: Downregulation of PI3Kalpha protein expression in human MG C-803 cells at 2 to 8 uM by Western blotting analysis; assay type: functional, cell-based; conditions: dose 2-8 µM
MGC-803 [19] = assay: Inhibition of PI3K signalling pathway in human MGC-803 cells assessed as reduction in pAKT level at 2 to 8 uM by Western blotting analysis; assay type: cell-based; conditions: dose 2-8 µM
[20] = Half life in Sprague-Dawley rat at 10 mg/kg, po measured after 24 hrs; assay type: ADME, organism-based; conditions: in vivo
[21] = Tmax in Sprague-Dawley rat at 1 mg/kg, iv measured after 24 hrs; assay type: ADME, organism-based; conditions: in vivo
[22] = Tmax in Sprague-Dawley rat at 10 mg/kg, po measured after 24 hrs; assay type: ADME, organism-based; conditions: in vivo
[23] = Cmax in Sprague-Dawley rat at 1 mg/kg, iv measured after 24 hrs; assay type: ADME, organism-based; set-up: time 24 hrs, dose 1 mg/kg, route iv; conditions: in vivo
[24] = Cmax in Sprague-Dawley rat at 10 mg/kg, po measured after 24 hrs; assay type: ADME, organism-based; set-up: time 24 hrs, dose 10 mg/kg, route po; conditions: in vivo
[25] = AUC (0 to t) in Sprague-Dawley rat at 1 mg/kg, iv measured after 24 hrs; assay type: ADME, organism-based; set-up: time 24 hrs, dose 1 mg/kg, route iv; conditions: in vivo
[26] = AUC (0 to t) in Sprague-Dawley rat at 10 mg/kg, po measured after 24 hrs; assay type: ADME, organism-based; set-up: dose 10 mg/kg, time 24 hrs, route po; conditions: in vivo
[27] = AUC (0 to infinitive) in Sprague-Dawley rat at 1 mg/kg, iv measured after 24 hrs; assay type: ADME, organism-based; set-up: time 24 hrs, dose 1 mg/kg, route iv; conditions: in vivo
[28] = AUC (0 to infinitive) in Sprague-Dawley rat at 10 mg/kg, po measured after 24 hrs; assay type: ADME, organism-based; set-up: dose 10 mg/kg, time 24 hrs, route po; conditions: in vivo
[29] = Clearance in Sprague-Dawley rat at 1 mg/kg, iv measured after 24 hrs; assay type: ADME, organism-based; conditions: in vivo
MGC-803 [30] = assay: Antitumor activity against human MGC-803 cells xenografted in BALB/c nude mouse assessed as reduction in tumor volume at 30 mg/kg, po administered every day for 3 weeks in presence of taxol by vernier caliper method; assay type: functional, organism-based
MGC-803 [31] = assay: Antitumor activity against human MGC-803 cells xenografted in BALB/c nude mouse assessed as tumor growth inhibition at 10 mg/kg, ip administered every day for 3 weeks; assay type: functional; conditions: MGC-803, 504 h, read-out: TGI
MGC-803 [32] = assay: Antitumor activity against human MGC-803 cells xenografted in BALB/c nude mouse assessed as tumor growth inhibition at 30 mg/kg, po administered every day for 3 weeks in presence of taxol; assay type: functional; conditions: MGC-803, 504 h, read-out: TGI
[33] = Toxicity in BALB/c mouse xenografted with human MG C-803cells assessed as effect on body weight at 10 mg/kg, IP administered every day for 3 week; assay type: organism-based; conditions: in vivo, 504 h, time 3 weeks
[34] = Toxicity in BALB/c mouse xenografted with human MG C-803cells assessed as effect on body weight at 30 mg/kg, po administered every day for 3 week in presence of taxol; assay type: organism-based; conditions: in vivo, 504 h, time 3 weeks
[35] = target: Phosphatidylinositol 4,5-bisphosphate 3-kinase catalytic subunit gamma isoform (Homo sapiens, UniProt P48736)
Sequence of Phosphatidylinositol 4,5-bisphosphate 3-kinase catalytic subunit gamma isoform (P48736 whole entry, canonical isoform): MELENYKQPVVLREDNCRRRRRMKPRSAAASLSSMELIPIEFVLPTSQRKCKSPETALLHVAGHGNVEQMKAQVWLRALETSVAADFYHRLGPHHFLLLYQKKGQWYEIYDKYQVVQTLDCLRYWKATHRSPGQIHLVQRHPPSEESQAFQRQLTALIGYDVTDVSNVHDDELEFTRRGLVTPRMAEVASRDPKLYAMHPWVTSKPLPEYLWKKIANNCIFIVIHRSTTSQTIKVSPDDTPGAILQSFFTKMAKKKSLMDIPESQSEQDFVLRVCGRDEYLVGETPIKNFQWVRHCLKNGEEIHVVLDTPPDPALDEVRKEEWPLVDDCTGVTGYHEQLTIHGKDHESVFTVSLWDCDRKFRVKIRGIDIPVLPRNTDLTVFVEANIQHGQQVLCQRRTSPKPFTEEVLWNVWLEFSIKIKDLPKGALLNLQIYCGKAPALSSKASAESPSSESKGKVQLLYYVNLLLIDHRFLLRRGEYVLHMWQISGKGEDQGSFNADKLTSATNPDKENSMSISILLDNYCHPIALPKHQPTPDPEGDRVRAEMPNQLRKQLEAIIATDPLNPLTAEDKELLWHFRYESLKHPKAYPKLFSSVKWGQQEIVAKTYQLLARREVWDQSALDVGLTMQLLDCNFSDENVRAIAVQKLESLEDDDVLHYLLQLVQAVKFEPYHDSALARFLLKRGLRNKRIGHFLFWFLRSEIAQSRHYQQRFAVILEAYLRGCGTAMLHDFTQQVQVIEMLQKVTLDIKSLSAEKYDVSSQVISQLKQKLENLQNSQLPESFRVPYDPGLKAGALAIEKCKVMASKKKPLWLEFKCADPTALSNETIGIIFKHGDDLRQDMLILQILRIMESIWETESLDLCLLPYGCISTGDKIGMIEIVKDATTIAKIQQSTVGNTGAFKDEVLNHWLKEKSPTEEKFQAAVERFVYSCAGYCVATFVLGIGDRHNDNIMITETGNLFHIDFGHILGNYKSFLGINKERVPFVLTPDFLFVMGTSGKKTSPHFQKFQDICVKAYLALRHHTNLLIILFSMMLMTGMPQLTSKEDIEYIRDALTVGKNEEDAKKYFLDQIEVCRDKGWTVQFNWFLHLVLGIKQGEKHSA

Sequence of Phosphatidylinositol 4,5-bisphosphate 3-kinase catalytic subunit beta isoform (P42338 whole entry, canonical isoform): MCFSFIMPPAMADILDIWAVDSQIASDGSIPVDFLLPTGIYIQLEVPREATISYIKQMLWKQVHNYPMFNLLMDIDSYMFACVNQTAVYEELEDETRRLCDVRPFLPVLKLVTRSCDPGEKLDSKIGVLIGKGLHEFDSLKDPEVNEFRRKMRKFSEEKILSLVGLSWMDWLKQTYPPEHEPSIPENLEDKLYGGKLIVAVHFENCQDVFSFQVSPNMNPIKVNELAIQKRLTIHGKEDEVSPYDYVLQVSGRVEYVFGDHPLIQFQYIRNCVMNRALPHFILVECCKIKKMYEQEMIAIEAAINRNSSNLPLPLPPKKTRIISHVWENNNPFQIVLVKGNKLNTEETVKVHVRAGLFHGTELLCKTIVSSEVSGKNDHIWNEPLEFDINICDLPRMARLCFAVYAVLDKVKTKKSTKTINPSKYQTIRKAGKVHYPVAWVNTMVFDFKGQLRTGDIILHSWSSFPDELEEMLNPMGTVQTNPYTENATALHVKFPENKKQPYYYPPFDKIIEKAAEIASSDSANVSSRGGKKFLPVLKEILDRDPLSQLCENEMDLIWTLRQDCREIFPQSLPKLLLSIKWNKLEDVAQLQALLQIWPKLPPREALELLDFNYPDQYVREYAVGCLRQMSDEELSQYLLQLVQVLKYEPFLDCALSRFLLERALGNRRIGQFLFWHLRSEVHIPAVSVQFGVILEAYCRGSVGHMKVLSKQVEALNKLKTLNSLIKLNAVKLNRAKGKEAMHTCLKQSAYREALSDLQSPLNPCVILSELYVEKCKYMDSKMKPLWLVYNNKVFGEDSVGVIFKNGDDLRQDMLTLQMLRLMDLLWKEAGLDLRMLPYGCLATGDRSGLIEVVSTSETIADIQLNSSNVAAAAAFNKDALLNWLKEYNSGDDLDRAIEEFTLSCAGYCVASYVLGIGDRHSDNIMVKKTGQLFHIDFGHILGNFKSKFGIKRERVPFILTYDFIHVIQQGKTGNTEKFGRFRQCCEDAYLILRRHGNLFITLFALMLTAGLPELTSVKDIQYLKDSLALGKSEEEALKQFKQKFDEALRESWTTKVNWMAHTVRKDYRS

- IC50 [1]: 146 nM
- Ratio IC50 (Homo sapiens [2]): 33
- Ratio IC50 (Homo sapiens [3]): 34
- Ratio IC50 (Homo sapiens [4]): 29
- IC50 (MGC-803 [5]): 430 nM
- IC50 (PC-3): 430 nM
- IC50 (HepG2): 430 nM
- IC50 (RPMI-8226): 430 nM
- IC50 (K562): 430 nM
- IC50 (U-251): 430 nM
- half-life [20]: > 10 h
- Tmax [21]: 10.8 s
- Tmax [22]: 9.33 h
- Cmax [23]: 455 ng/mL
- Cmax [24]: 2260 ng/mL
- AUC(0-t) at 24 h [25]: 2240 ng·h/mL
- AUC(0-t) at 24 h [26]: 36700 ng·h/mL
- AUC(0-inf) [27]: 2920 ng·h/mL
- AUC(0-inf) [28]: 38100 ng·h/mL
- clearance [29]: 5.72 mL/min/kg
- IC50 [35]: 128 nM
Structure (SMILES): Nc1nc2cc(-c3nc(N4CCOCC4)nc(N4CCOCC4)n3)ccc2o1
- viability at 2 µM (MGC-803 [6]): 87%
- Activity (MGC-803 [7]): 4.55%
- Activity (MGC-803 [8]): 0.95%
- viability at 4 µM (MGC-803 [9]): 62.6%
- Activity (MGC-803 [10]): 31.31%
- Activity (MGC-803 [11]): 1.11%
- viability at 8 µM (MGC-803 [12]): 37.2%
- Activity (MGC-803 [13]): 57.88%
- Activity (MGC-803 [14]): 3.81%
- Activity (MGC-803 [15]): 1.08%
- inhibition (MGC-803 [16]): Active
- inhibition (MGC-803 [17]): Active
- inhibition (MGC-803 [18]): Active
- inhibition (MGC-803 [19]): Active
- Activity (MGC-803 [30]): Active
- inhibition in vivo at 10 mg/kg (MGC-803 [31]): 41.5%
- inhibition in vivo at 30 mg/kg (MGC-803 [32]): 63.9%
- Activity [33]: Non-Toxic
- Activity [34]: Non-Toxic
